Results on 1 molecule are retold here after BindingDB's records for doi:10.1016/s0960-894x(00)00610-7 (Institute of Molecular and Cell Biology, 2001).

Usually IC50 stands for the midpoint of a concentration-inhibition curve.

The assay deals with T1, Chymotrypsin-C (Homo sapiens, UniProt Q99895).
T1 sequence (Q99895 whole entry): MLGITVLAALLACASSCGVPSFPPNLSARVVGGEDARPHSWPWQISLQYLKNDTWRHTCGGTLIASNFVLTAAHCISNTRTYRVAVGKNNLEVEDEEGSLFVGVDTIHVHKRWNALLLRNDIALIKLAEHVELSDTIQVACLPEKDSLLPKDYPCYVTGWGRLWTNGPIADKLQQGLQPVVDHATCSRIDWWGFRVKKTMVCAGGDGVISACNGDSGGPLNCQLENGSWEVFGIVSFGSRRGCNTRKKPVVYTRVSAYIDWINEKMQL
Put plainly: ChEBML_197813. The text has this:
Inhibitory activity against Serine protease chymotrypsin

`C=C(c1cccc(OC(=O)N[C@@H](CC(C)C)C(=O)N(CCN(Cc2ccc(C(=O)OC)cc2)Cc2ccc(C(=O)OC)cc2)Cc2ccc(Cl)cc2)c1)c1sc(=S)n(CC(=O)OCC)c1O` [4-{[(2-{(4-Chloro-benzyl)-[2-(3-{1-[3-ethoxycarbonylmethyl-4-oxo-2-thioxo-thiazolidin-(5Z)-ylidene]-ethyl}-phenoxycarbonylamino)-4-methyl-pentanoyl]-amino}-ethyl)-amino-methyl]di-benzoic acid methyl ester] registered an IC50 of 210 µM.
